“Also recorded” adds a separate entry of the source.
Tests used:
[1] = test system: AR-negative PCa cells; assay: Prostate cancer cell growth and survival, AR-negative cells; type: cell-based, human
Procedure: (§1) For cell viability, cells were seeded in 96-well plates at 1500-2500 cells per well (optimum density for growth) in a total volume of 100 μl media. Serially diluted compounds in […] of media were added to the cells 12 hours later. After 4 days of incubation, Cell-Titer GLO reagents (Promega) were added and luminescence was measured on GLOMAX microplate luminometer (Promega), according to the manufacturer's instructions. All experimental points were set up as sextuplicate as biological replication and the entire experiments were repeated three times. The data are presented as percentage of viable cells with vehicle treated cells set as 100. The estimated in vitro IC50 values were calculated using GraphPad Prism 6 software.
(§2) For apoptosis, Terminal deoxynucleotidyl transferase-mediated dUTP nick end labeling (TUNEL) was performed by using in situ cell death detection kit (Roche) as previously described^56. The results are expressed as a percentage of apoptotic cell number/total cell number. Caspase-3/7 activity was measured using a luminescent caspase-Glo 3/7 assay kit (Promega Corporation, Madison, USA) following the manufacturer's instructions. For cell growth, cells were seeded in 6-well plates at 2×10^5 per well and treated as indicated. Total viable cell numbers were counted using a Coulter cell counter. For colony formation, 800 cells were seeded in a well of 6-well plates and cultured for 14 days with the medium changed every 3 days. When the cell clone grew visible, the medium was removed and the cells were fixed with […] formalin for 10 minutes. Then the plates were washed with PBS for two times and the cell colonies were stained with 0.2% crystal violet (in 10% formalin) for 15 minutes. The numbers of cell colonies were counted after washed 5 times by PBS. The above assays were performed in triplicates and the entire experiments were repeated three times.

[2] = test system: AR-positive PCa cells; assay: Prostate cancer cell growth and survival (cell viability / cell growth); type: cell-based, human; conditions: for inhibition of AR-positive PCa cell growth and survival: different cell line models; for growth-inhibitory effect in prostate cancer cells: cell viability, 4 d (FIGS. 7B, 7C)
Procedure: as §1, §2

[3] = test system: breast cancer cells; assay: CellTiter-GLO viability, breast cancer cells; type: cell-based, human; conditions: for growth and survival of breast cancer cells: cells having different major molecular features, 4 days
Procedure: as §1
(§3) Using a CellTiter-GLO assay, the viability of cells of different cancer types was measured after treatment with different concentrations of RORγ small molecule inhibitors for 4 days.

[4] = test system: OVCAR420, T24, ECC1, HepG2, Hep3B, T98G, SUDHL4, SUDHL6, HCT116 and docetaxel-resistant C4-2B cells; assay: CellTiter-GLO viability, cells of other cancer types; type: cell-based, human; conditions: ovarian OVCAR420, bladder T24, endometrial ECC1, liver HepG2 and Hep3B, glioblastoma T98G, DLBCL SUDHL4 and SUDHL6, colon HCT116, docetaxel-resistant C4-2B; 4 days
Procedure: as §1, §3

[5] = test system: ER-positive cells, such as MCF-7 and T47D; assay: CellTiter-GLO viability, ER-positive breast cancer cells; type: cell-based; conditions: Homo sapiens, 96 h; ER-positive cells MCF-7 and T47D, treated for 4 days
Procedure: as §1, §3

[6] = test system: lung cancer cells; assay: CellTiter-GLO viability, lung cancer cells; type: cell-based, human; conditions: NSCLC cells: KRAS mutant (A427, Calu1, A549, H23, H358), BRAF mutant (H1666), EGFR mutant (HCC827, PC-9), Erlotinib-resistant (A427, H1975); 4 days
Procedure: as §1, §3

[7] = test system: TNBC cells including MDA-MB468, MDA-MB231, BT20, SUM149, and HCC1937; assay: CellTiter-GLO viability, triple-negative breast cancer cells; type: cell-based; conditions: Homo sapiens, 96 h, treated for 4 days
Procedure: as §1, §3

[8] = test system: HER2-positive cells, such as SKBR3 and HCC1954; assay: CellTiter-GLO viability, HER2-positive breast cancer cells; type: cell-based, human; conditions: SKBR3 and HCC1954, 4 days
Procedure: as §1, §3

[9] = test system: MCF-7-TamR cell line; assay: Growth of tamoxifen-resistant breast cancer cells; type: cell-based, human
Procedure: as §3

[10] = test system: AR; assay: ARE reporter gene assay (5xARE-tk-luc) in 22Rv1 cells; type: cell-based, human
Procedure: Transient transfection and reporter gene assays were performed as previously described^49 with the following modifications. ARE reporter gene assays were performed by transfecting 22Rv1 cells with 5×ARE-tk-luc, pcDNA3.1-hAR and pCMV-β-gal for normalization. For transfection with constructs omitted for specific gene expression, corresponding empty vectors were used to ensure equal amount of total DNA used. Briefly, 22Rv1 cells seeded in 96-well plates in hormone-deprived medium supplemented with 10% cds-FBS (Hyclone) were transfected with lipofectamine 2000 (Life technology, Carlsbad, Calif., USA) and the indicated plasmid DNA. Cells were then treated at 12 hours after transfection with 3 nm R1881, indicated concentrations of RORγ antagonists or ENZ for another 24 hours before harvested for β-gal and luciferase assays. For RORE reporter gene assays, 4×AR-RORE-tk-luc was constructed by inserting four copies of the newly identified AR-RORE TTCTGGGTCA (SEQ ID NO: 1) into tk-luciferase reporter vector. AR-RORE mutant form (AR-RORE mut) contains sequences mutated from TTCTGGGTCA (SEQ ID NO: 1) to TTCTGAACGA (SEQ ID NO: 2). […] The luciferase and β-galactosidase were then analyzed with a Luciferase Assay Substrate (Promega) and Luminescent β-galactosidase Detection Kit II (Clontech). […]

[11] = test system: AR and AR-V7; assay: AR and AR variant expression (immunoblotting, qRT-PCR); type: cell-based, human
Procedure: Total RNA was isolated from cells in 6-well or 10-cm plates or from xenograft tumors, and the cDNA was prepared, amplified and measured in the presence of SYBR as previously^49. Briefly, the fluorescent values were collected and a melting curve analysis was performed. Fold difference was calculated as described previously^49. The experiments were performed at least three times with data presented as mean values±s.d. Cell lysates were analyzed by immunoblotting with antibodies specifically recognizing RORγ, AR, AR-V7 and the indicated proteins. The PCR primers and all the antibodies used in this study are described in the Tables 3 and 4.

[12] = test system: 22Rv1 xenografts; assay: 22Rv1 xenograft tumor growth; type: in vivo, mice
Procedure: Four-week-old male SCID C.B17 mice (for C4-2B and VCaP) or BALB/c nu/nu athymic mice (for 22Rv11 and PC-3) were purchased from Harlan Inc. For establishing tumors, 2×10^6 cells were suspended in total of 100 μL PBS/Matrigel (1:1) and implanted subcutaneously into the dorsal flank on both sides of the mice. Animal group size of six or more was estimated to have a high statistic power, based on power calculation (http://www.biomath.info/power/) and previous studies involving the same xenograft models^34,68. When the tumor volume was approximately 80 mm^3, the mice were randomized and then treated intraperitoneally (i.p.) with 100 μl of either vehicle or RORγ antagonists SR2211, XY011/8k (in a formulation of 15% Cremophor EL, Calbiochem, 82.5% PBS, and 2.5% DMSO) for five times per week. Tumor growth was monitored by calipers with volume calculated using the equation: (π/6 (length×width2)). Body weight during the course of the study was also monitored. At the end of the studies mice were killed and tumors were dissected and weighed. Additionally, prostate, seminal vesicle, testis, kidney, heart, lung, liver, epididymal fat pad and spleen were harvested and weighed. To assess the effect of combining RORγ antagonists and ENZ on the growth of castrated-resistant VCaP xenografts (CRPC-VCaP), first, SCID C.B17 mice were injected with VCaP cells as above to establish the tumors. Then, mice bearing tumors of approximately 180 mm^3 were surgically castrated. They were then observed for tumor regression. Once tumors grew back to the pre-castration size, mice were randomized and treated with vehicle, 5 mg kg^−1 SR2211, 10 mg […] ENZ or a combination of 5 mg kg^−1 SR2211 and 10 mg kg^−1 ENZ. ENZ was given by oral gavage as previously described^68 and SR2211 was administered i.p as above. Mice were excluded from the study if bearing no tumor or tumor with size twice larger or smaller than the mean, at the time of randomization.

Which results are given for CCN1C(=O)c2cccc3c(S(=O)(=O)Nc4ccc5ccncc5c4)ccc1c23 [6f, 1-Ethyl-N-(isoquinolin-7′-yl)-2-oxo-1,2-dihydrobenzo[cd]indole-6-sulfonamide]?
inhibition of cell growth and survival in AR-negative cells [1]: not in the AR-negative cells; inhibition of AR-positive PCa cell growth and survival [2]: potent inhibition of AR-positive PCa cell growth and survival

How did the “inhibition of cell growth and survival in AR-negative cells” value [1] turn out when CCN1C(=O)c2cccc3c(S(=O)(=O)Nc4ccc(/N=N/c5ccccc5)cc4)ccc1c23 [7k, (E)-1-ethyl-2-oxo-N-(4′-(phenyldiazenyl)phenyl)-1,2-dihydrobenzo[cd]indole-6-sulfonamide] was run?
Its value is “not in the AR-negative cells”.

What about the “inhibition of AR-positive PCa cell growth and survival” value [2] of the same compound?
The value was “potent inhibition of AR-positive PCa cell growth and survival”.

With CC(=O)N1CCN(c2ccc(CN3[C@@H](C)CC[C@H](c4ccccc4)S3(=O)=O)c(F)c2)CC1 [GNE3500] as the compound, how does the “growth and survival of different breast cancer cells” value ([3]; HER2-positive HCC1954, TNBC MDA-MB468 and MDA-MB231, radiation-resistant MCF-7-C6) read?
Its value is “significant inhibition”.

For NS(=O)(=O)c1ccc(CC(=O)Nc2cc(Cl)c(-c3ccccc3OC(F)(F)F)c(Cl)c2)cc1 [GSK9b, N-(2,6-dichloro-2′-trifluoromethoxy)-[1,1′-biphenyl]-4-yl-2-(4-sulfamoylphenyl)acetamide], which “growth and survival of cancer cells of other types” value [4] is on record?
The value was “significant inhibition of the growth and survival”.

And the “growth and survival of breast cancer cells” value [3]?
The value was “strongly inhibited the growth and survival of breast cancer cells; also recorded: slightly less effective than GSK805”.

For CCS(=O)(=O)c1ccc(CC(=O)Nc2cc(Cl)c(-c3ccccc3OC(F)(F)F)c(Cl)c2)cc1 [GSK805, N-(3,5-Dichloro-4-(2-(trifluoromethoxy)phenyl)phenyl)-2-(4-ethylsulfonylphenyl)acetamide], which IC50 [5] is on record?
The IC50 was > 10 µM.

And the “growth and survival of cancer cells of other types” value [4]?
The value was “significant inhibition of the growth and survival”.

What about the “growth and survival of lung cancer cells” value [6] of the same compound?
The value was “strongly inhibited the growth and survival of lung cancer cells”.

And the IC50 [7]?
The IC50 was 1 to 10 µM.

What about the “inhibition of HER2-positive cells” value [8] of the same compound?
The value was “relatively strong inhibition”.

What about the “growth and survival of breast cancer cells” value [3] of the same compound?
Its value is “strongly inhibited the growth and survival of breast cancer cells”.

And the “sensitization of tamoxifen-resistant breast cancer cells to tamoxifen” value ([9]; MCF-7 TamR cells, in combination with tamoxifen)?
Its value is “able to sensitize tamoxifen-resistant breast cancer cells to tamoxifen; also recorded: sensitized MCF-7 TamR cells to tamoxifen”.

C[C@]1(O)CC[C@H]2[C@@H]3CCC4=CC(=O)CCC4=C3C=C[C@@]21C [R1881] was tested. Which “response of multimerized ARE-driven reporter” value [10] did it give?
Its value is “activated”.

Which results are given for CC(=O)N1CCN(Cc2ccc(-c3ccc(C(O)(C(F)(F)F)C(F)(F)F)cc3)cc2)CC1.Cl [SR1555, 1-(4-((4′-(1,1,1,3,3,3-hexafluoro-2-hydroxypropan-2-yl)-[1,1′-biphenyl]-4-yl)methyl)piperazin-1-yl)ethanone, monohydrochloride]?
inhibition of cell growth and survival in AR-negative cells [1]: not in the AR-negative cells; growth-inhibitory effect in prostate cancer cells [2]: significant inhibitory effects with slightly lower potencies; inhibition of AR-positive PCa cell growth and survival [2]: potent inhibition of AR-positive PCa cell growth and survival

How did the “expression of AR and AR-V7” value ([11]; C4-2B and VCaP cells, 72 h) turn out when CCN1C(=O)c2cccc3c(S(=O)(=O)Nc4ccc(OC)c(OC)c4)ccc1c23 [XY011, N-(3′,4′-dimethoxyphenyl)-1-ethyl-2-oxo-1,2-dihydrobenzo[cd]indole-6-sulfonamide] was run?
The value was “potently inhibited the expression of AR and AR-V7 in a dose-dependent manner”.

And the “inhibition of cell growth and survival in AR-negative cells” value [1]?
Its value is “not in the AR-negative cells”.

What about the “inhibition of AR-positive PCa cell growth and survival” value [2] of the same compound?
The value was “potent inhibition of AR-positive PCa cell growth and survival”.

And the tumor growth inhibition ([12]; XY011 20 mg/kg, i.p., 5 times a week (FIG. 23B))?
Its tumor growth inhibition is “Strong tumor growth inhibition”.

What about the “growth of xenograft tumors” value ([12]; nude mice, SR2211 5 mg/kg i.p., 8k/E11 10 and 20 mg/kg i.p., five times per week (FIG. 3A)) of the same compound?
Its value is “strongly inhibited growth of xenograft tumors”.

How did the AR expression ([11]; C4-2B cells treated with bufalin) turn out when C[C@]12CC[C@H](O)C[C@H]1CC[C@@H]1[C@@H]2CC[C@]2(C)[C@@H](c3ccc(=O)oc3)CC[C@]12O [bufalin] was run?
The AR expression was “dose-dependent inhibition of AR expression”.

Which “growth inhibitory effect of tamoxifen alone” value ([9]; MCF-7-TamR, 1 μM of 4(OH)-tamoxifen) does the source give for CC/C(=C(\c1ccccc1)c1ccc(OCCN(C)C)cc1)c1ccccc1 [tamoxifen] here?
Its value is “did not show any inhibitory effect”.

And the “growth inhibitory effect of tamoxifen in combination with RORγ inhibitors” value ([9]; tamoxifen-resistant breast cancer cells, combined with SR2211 or GSK805)?
Its value is “synergistic growth inhibitory effect”.

Which “growth-inhibitory effect in prostate cancer cells” value [2] does the source give for SR3335 here?
The value was “did not display any significant effect”.

What about the “inhibition of AR-positive PCa cell growth and survival” value [2] of the same compound?
The value was “did not show any significant growth inhibition”.

— patent publication US10959984B2, “Methods for treating cancer with RORγ inhibitors” (THE REGENTS OF THE UNIVERSITY OF CALIFORNIA, priority 2015, dated 2021)
